Key:
[1] = system: PBMC from HLA-A*02:01 Chagas disease patients and healthy donors; assay: Cytokine secretion test (Bio-Plex multiplex immunoassay) in PBMC supernatants; assay type: cell-based, human; details: 1 μM peptide, 30 h; for IFNγ / IL6 / TNFα: non-peptide control subtracted
Method: (§1) For the screening of the recognition of TcCA-2 epitopes by Chagas disease patients, 10 HLA-A*02:01 adult patients in the asymptomatic phase of the disease (IND) were enrolled. For cytotoxicity, functional activity determinations and phenotypic characterization another group of 19 HLA-A*02:01 adults Chagas disease patients and 9 healthy donors were analyzed. These patients were at the chronic stage of the disease and were considered to be at the asymptomatic phase (IND, n = 8) if there was no evidence of having cardiac or gastrointestinal disorders. Chronic Chagas cardiomyopathy patients (CCC, n = 11) were stratified into G1 to G3 stages following Kuschnir classification according to clinical criteria and radiological, electrocardiographic and echocardiography analyses. The number of patients was the one recommended by the Hospital Ethical Committee. […] The patients were enrolled in both studies (functional and phenotypic characterization, IND n = 6 and CCC n = 7) when the available number of purified PBMC (limited by the cellular number isolated from each subject) was enough for both analyses. Another four CCC patients had to be enrolled to perform the phenotypic analysis in order to reach statistical significance.
(§2) Cytokine secretion (IL-4, IL-10, IL-6, IFN-γ, TNF-α) was determined in the supernatants of PBMC from Chagas disease patients and healthy donors, after in vitro stimulation with 1 μM of each peptide for 30 h at 37°C in RPMI supplemented with 10% iFBS as explained before. The secretion profile was determined by using a bead-based multiplex immunoassay system (Bio-Plex, Bio-Rad), following the manufacturer's instructions. The response was considered positive if an increase in the secretion of cytokines was at least three folds higher than the secretion by un-stimulated cells (basal secretion level) and at least, 4 pg/mL for IL-4, 2 pg/mL for IL-10, 15 pg/mL for IL-6 and 5 pg/mL for IFN-γ and TNF-α. The positive control consisted of 50 ng/mL Phorbol 12 myristate 13-acetate (PMA) and 500 ng/mL ionomycin (Sigma). Cytokine levels were quantified in each sample by using the Bio-Plex Manager software 4.1 (Bio-Rad).
Functional analysis of the epitope-specific CD8^+ T cells was carried out by the determination of the secretion profile of IFN-γ, TNF-α, IL-4, IL10 and IL-6 cytokines. […] CD8^+ T cells from 2 out of 11 patients responded to stimulation with peptide TcCA-2_273-281 by secreting IL-6. […] There was no secretion of IL-4 and IL-10 in PBMC after stimulation with any one of the four TcCA-2 peptides (data not shown). IFN-γ, TNF-α and IL6 cytokines secretion levels were higher in patients at the asymptomatic phase of the disease than in Chagas patients with associated cardiomyopathy.

[2] = system: PBMCs from asymptomatic HLA-A*02:01 Chagas disease patients; assay: HLA-A*02:01 restriction assay: peptide-pulsed K562-A2 cells as APC, IFN-γ secretion by patient PBMC; assay type: cell-based, human; details: range among patients with a positive response; K562-A2 pulsed with 1 mM peptide 1 h, 30 h co-culture; K562 level subtracted
Method: TAP-deficient T2 cells were used for the HLA-A*02:01 binding assays and the K562-A2 cells for the HLA-A*02:01 restriction assay. The cells were cultured in complete RPMI medium supplemented with 10% of inactivated Fetal Calf Serum (iFCS), 2 mM glutamine, and 100 U/ml penicillin. K562-A2 cells, expressing the HLA-A*02:01 molecule were cultured in the presence of […] of G-418, as previously described. The T2 and K562-A2 cells were kindly provided by Dr. Pedro Romero (University of Lausanne) and by Dr Peter Ponsaerts (University of Antwerp, with the permission of Dr. Cedrik Britten from Johanes Gutenberg-University Mainz), respectively.
as §1
as §2, with “(Bio-Rad). […]” for “(Bio-Rad).”

ALRNLRVFL [TcCA-2_607-615]
Patients whose cells recognized the peptide by secreting IFN-γ, TNF-α and IL-6 ([1]; PBMC of Chagas patients, positive = at least three folds non-peptide control and ≥15 pg/mL IL-6, ≥5 pg/mL IFN-γ and TNF-α): 2 out of the 14 | IFNγ ([1]; PBMC of patient CCC I 456): 3 pg/mL | IL6 ([1]; PBMC of patient CCC I 456): 18 pg/mL | TNFα ([1]; PBMC of patient CCC I 456): 12 pg/mL | IFNγ ([1]; PBMC of patient CCC I 770): 0 pg/mL | IL6 ([1]; PBMC of patient CCC I 770): 49 pg/mL | TNFα ([1]; PBMC of patient CCC I 770): 16 pg/mL | IFNγ ([1]; PBMC of patient CCC I 861): 0 pg/mL | IL6 ([1]; PBMC of patient CCC I 861): -7 pg/mL | TNFα ([1]; PBMC of patient CCC I 861): -3 pg/mL | IFNγ ([1]; PBMC of patient CCC I 884): 0 pg/mL | IL6 ([1]; PBMC of patient CCC I 884): 0 pg/mL | TNFα ([1]; PBMC of patient CCC I 884): 0 pg/mL | IFNγ ([1]; PBMC of patient CCC II 142): 0 pg/mL | IL6 ([1]; PBMC of patient CCC II 142): -4 pg/mL | TNFα ([1]; PBMC of patient CCC II 142): -15 pg/mL | IFNγ ([1]; PBMC of patient CCC III 509): 0 pg/mL | IL6 ([1]; PBMC of patient CCC III 509): -5 pg/mL | TNFα ([1]; PBMC of patient CCC III 509): -4 pg/mL | IFNγ ([1]; PBMC of patient CCC III 797): -5 pg/mL | IL6 ([1]; PBMC of patient CCC III 797): 9 pg/mL | TNFα ([1]; PBMC of patient CCC III 797): 3 pg/mL | IFNγ ([1]; PBMC of patient IND 265): 81 pg/mL | IL6 ([1]; PBMC of patient IND 265): 1127 pg/mL | TNFα ([1]; PBMC of patient IND 265): 83 pg/mL | IFNγ ([1]; PBMC of patient IND 283): 15 pg/mL | IL6 ([1]; PBMC of patient IND 283): 55 pg/mL | TNFα ([1]; PBMC of patient IND 283): 26 pg/mL | IFNγ ([1]; PBMC of patient IND 365): 5 pg/mL | IL6 ([1]; PBMC of patient IND 365): 23 pg/mL | TNFα ([1]; PBMC of patient IND 365): 23 pg/mL | IFNγ ([1]; PBMC of patient IND 388): 1 pg/mL | IL6 ([1]; PBMC of patient IND 388): 32 pg/mL | TNFα ([1]; PBMC of patient IND 388): -11 pg/mL | IFNγ ([1]; PBMC of patient IND 510): 0 pg/mL | IL6 ([1]; PBMC of patient IND 510): -1 pg/mL | TNFα ([1]; PBMC of patient IND 510): 2 pg/mL | IFNγ ([1]; PBMC of patient IND 535): 0 pg/mL | IL6 ([1]; PBMC of patient IND 535): -5 pg/mL | TNFα ([1]; PBMC of patient IND 535): -1 pg/mL | IFNγ ([1]; PBMC of patient IND 917): 1 pg/mL | IL6 ([1]; PBMC of patient IND 917): -2 pg/mL | TNFα ([1]; PBMC of patient IND 917): -3 pg/mL | IFNγ ([1]; PBMC of subject HD 001): 1 pg/mL | IL6 ([1]; PBMC of subject HD 001): -6 pg/mL | TNFα ([1]; PBMC of subject HD 001): -14 pg/mL | IFNγ ([1]; PBMC of subject HD 004): 0 pg/mL | IL6 ([1]; PBMC of subject HD 004): -5 pg/mL | TNFα ([1]; PBMC of subject HD 004): 0 pg/mL | IFNγ ([1]; PBMC of subject HD 005): -21 pg/mL | IL6 ([1]; PBMC of subject HD 005): -77 pg/mL | TNFα ([1]; PBMC of subject HD 005): -2 pg/mL | IFNγ ([1]; PBMC of subject HD 006): 13 pg/mL | IL6 ([1]; PBMC of subject HD 006): 69 pg/mL | TNFα ([1]; PBMC of subject HD 006): 5 pg/mL | IFNγ ([1]; PBMC of subject HD 008): 3 pg/mL | IL6 ([1]; PBMC of subject HD 008): 22 pg/mL | TNFα ([1]; PBMC of subject HD 008): 0 pg/mL | IFNγ ([1]; PBMC of subject HD 011): 0 pg/mL | IL6 ([1]; PBMC of subject HD 011): -12 pg/mL | TNFα ([1]; PBMC of subject HD 011): -8 pg/mL | IFNγ ([1]; PBMC of subject HD 340): 0 pg/mL | IL6 ([1]; PBMC of subject HD 340): 6 pg/mL | TNFα ([1]; PBMC of subject HD 340): 0 pg/mL | IFNγ ([1]; PBMC of subject HD 664): -3 pg/mL | IL6 ([1]; PBMC of subject HD 664): 0 pg/mL | TNFα ([1]; PBMC of subject HD 664): 0 pg/mL | INF-γ secretion range [2]: 6.4 to 15.1 pg/mL

— article PMC4376724, “Differential Phenotypic and Functional Profiles of TcCA-2 -Specific Cytotoxic CD8^+ T Cells in the Asymptomatic versus Cardiac Phase in Chagasic Patients” (PLoS ONE, 2015)
